“And” between values parts separate entries of the source, which are not always exact repeats. Equal entries are not always repeated.
Columns and labels:
Cos7 = experiment: Preliminary [3H]adenine binding on wild-type cells
Experimental: (§1) A) Methods—[3H]Adenine binding experiments were performed to characterize wild type cell lines before transfection as well as transiently and permanently transfected cell lines. Membranes were thawed on ice and diluted in 50 mM HEPES buffer, pH 7.4 supplemented with 10 mM MgCl2 and 1 mM EGTA. […] Both assays were carried out in a final volume of 500 μl, using 18 μg of membrane protein for the transfected CHO cells and 30 μg of membrane protein for the wild type CHO cells for the saturation binding. For competition binding experiments, 15 and 50 μg of membrane protein was used for the transfected and wild type cells, respectively. The reaction was terminated by rapid filtration through Whatman GF/B filters using a Brandel multi-channel cell harvester (96 wells). The filters were washed three times with 3 ml ice cold 50 mM HEPES buffer, pH 7.4, transferred to liquid scintillation vials and 3 ml of scintillation fluid (Ultima Gold MV, Packard, Netherlands) was added. Samples were counted in a β-scintillation counter after at least 6 hours to permit the glass fiber filters to become uniformly translucent.
(§2) The assay conditions were identical to those for the transfected cells.

CHO = experiment: Preliminary [3H]adenine binding on wild-type cells; settings: pool 1 and pool 2
Experimental: as §1, §2

C6 glioma = experiment: Preliminary [3H]adenine binding on wild-type cells
Experimental: as §1, §2

NIH3T3 = experiment: Preliminary [3H]adenine binding on wild-type cells
Experimental: as §1, §2

HEK293 = experiment: Preliminary [3H]adenine binding on wild-type cells
Experimental: as §1, §2

wild type CHO cells [1] = experiment: [3H]adenine saturation binding on wild type CHO membranes; settings: mean n=3
Experimental: (§3) The membranes were prepared as total particulate fractions. The cell lines were cultured to 906 confluency on 145 mm petri dishes and treated with 5 mM sodium butyrate, 24 hours before collection. The culturing medium was removed and the cells were washed twice with ice cold phosphate buffered saline (PBS without Ca^2+ and Mg^2+), scraped from the plates in 50 mM Tris-HCl buffer, pH 7.4, and collected by centrifugation (10 minutes at 16,000 RPM at 4° C.). The cell pellet was re-suspended in hypotonic 5 mM Tris-HCl buffer, pH 7.4, and homogenized with an Ultra Turrax homogenizer (Janker Kunkel, Germany). The homogenate was centrifuged at 18,000 RPM for 20 minutes at 4° C. The final pellet was re-suspended in 50 mM Tris-HCl buffer, pH 7.4 and stored in aliquots at −70° C. A protein determination was performed using the Bradford protein assay (Biorad, Germany) using bovine serum albumin (BSA) as standard.
A) Methods—[3H]Adenine binding experiments were performed to characterize wild type cell lines before transfection as well as transiently and permanently transfected cell lines. Membranes were thawed on ice and diluted in 50 mM HEPES buffer, pH 7.4 supplemented with 10 mM MgCl2 and 1 mM EGTA. […] Samples were counted in a β-scintillation counter after at least 6 hours to permit the glass fiber filters to become uniformly translucent. […]

[2] = molecular target: T1, adenine binding rat receptor (Rattus norvegicus, UniProt Q7TN49); experiment: [3H]adenine saturation binding on CHO membranes transiently transfected; settings: transfected cells
T1 construct: expressed in transfected cells; host or cells: CHO cells, transient, lipofectamine PLUS
T1 sequence (Q7TN49 1-304): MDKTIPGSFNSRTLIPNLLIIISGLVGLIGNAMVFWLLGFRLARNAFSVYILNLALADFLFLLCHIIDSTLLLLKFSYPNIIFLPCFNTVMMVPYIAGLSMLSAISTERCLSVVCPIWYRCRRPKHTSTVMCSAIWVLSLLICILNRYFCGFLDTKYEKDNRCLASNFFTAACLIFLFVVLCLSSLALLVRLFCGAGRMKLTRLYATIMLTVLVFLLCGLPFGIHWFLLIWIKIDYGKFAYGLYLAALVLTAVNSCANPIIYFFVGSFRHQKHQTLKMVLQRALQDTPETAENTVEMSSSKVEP
Experimental: as §3, §1
Addition of Gpp-NHp blocks the high-affinity or agonist binding sites of GPCRs, so that only low-affinity sites are available.

[3] = molecular target: T1, adenine binding rat receptor; experiment: [3H]adenine competition binding on CHO membranes transiently transfected; settings: transfected cells, 15 nM [3H]adenine
Experimental: as §3, §1

adenine binding GPCR = molecular target: T2, adenine binding GPCR (Rattus norvegicus, UniProt Q7TN49); experiment: FLIPR Ca2+ transient assay, antagonism of 30 nM adenine challenge; format: cell-based; settings: 15 minutes incubation with compound (30 μM to 30 pM), then challenge with 30 nM adenine
T2 construct: The full length reading frame was inserted into the mammalian expression vector pcDNA3; expressed in transfected cells; host or cells: HEK293 cells stably transfected with pLEC/Gqi or pLEC/Gqo
T2 sequence (Q7TN49 1-304): T1 sequence (Q7TN49 1-304)
Source text: (§4) The full length reading frame was inserted into the mammalian expression vector pcDNA3 (Invitrogen, Carlsbad, Calif., U.S.A.) and the resulting expression construct was transiently transfected with the FuGENE 6 reagent (Roche Molecular Biochemicals, Mannheim, Germany) into HEK293 cells stably transfected (E. Bender, unpublished) with pLEC/Gqi or pLEC/Gqo (Molecular Devices, Sunnyvale, Calif., U.S.A.). The cells were loaded with Fluo-4 (Molecular Probes, Eugene, Oreg., U.S.A.) according to the recommendations of the supplier.
After a 15 minutes incubation at room temperature, the same cells were challenged with 30 nM adenine, to detect antagonistic properties of molecules added in the first round of superfusion.

rat adenine binding GPCR = molecular target: T3, rat adenine binding GPCR (Rattus norvegicus, UniProt Q7TN49); experiment: FLIPR Ca2+ transient assay, agonism, HEK293/Gq chimera cells transiently transfected with rat adenine binding GPCR/pcDNA3; format: cell-based; parameters: The full length reading frame was inserted into the mammalian expression vector pcDNA3; expressed in transfected cells; host or cells: HEK293 cells stably transfected with pLEC/Gqi or pLEC/Gqo; settings: for calcium transients elicited: HEK293/Gaqo cells, 3.3 μM; for agonistic effects on Ca2+ transients: concentrations ranging from 30 μM to 30 pM
T3 sequence (Q7TN49 1-304): T1 sequence (Q7TN49 1-304)
Source text: This assay is based around an instrument called a FLuorescence Imaging Plate Reader ((FLIPR®), Molecular Devices Corporation). In its most common configuration, it excites and measures fluorescence emitted by fluorescein-based dyes. It uses an argon-ion laser to produce high power excitation at 488 nm of a fluorophore, a system of optics to rapidly scan the over the bottom of a 96-/384-well plate and a sensitive, cooled CCD camera to capture the emitted fluorescence. It also contains a 96-/384-well pipetting head allowing the instrument to deliver solutions of test agents into the wells of a 96-/384-well plate. The FLIPR assay is designed to measure fluorescence signals from populations of cells before, during and after addition of compounds, in real time, from all 96-/384-wells simultaneously. […] As described below, calcium transients in cells transfected with adenine binding GPCR were measured using the FLIPR assay in order to measure activation of the receptors by various substrates in order to determine the natural ligand of the receptor.
as §4, with “supplier. […]” for “supplier.”
Using the FLIPR assay as above, calcium transients were measured in both sets of cells with the transients attributable to the novel GPCR measured as the difference between the two transients. Results are illustrated in FIG. 4. […]

wild type CHO cells [4] = experiment: [3H]adenine competition binding on wild type CHO membranes; settings: 15 nM [3H]adenine
Experimental: as §3, with “The cell lines were cultured to 906 confluency on 145 mm petri dishes and treated with 5 mM sodium butyrate, 24 hours before collection.” left out
as §1, with “Membranes” for “A) Methods—[3H]Adenine binding experiments were performed to characterize wild type cell lines before transfection as well as transiently and permanently transfected cell lines. Membranes”

wild type CHO cells [5] = experiment: cAMP measurements on wild type CHO cells; format: cell-based; settings: wild type
Experimental: For permanently transfected CHO cells, cAMP measurements were performed using the indirect RIA kit from NEN (Belgium).
a) Methods: Two days before the experiment the cells were seeded out in a 96 well plate at a density required for approximately 90% confluence at the day of the experiment. After removal of the growth medium, the cells were washed twice with a controlled salt solution (CSS) containing 25 mM Tris-HCl, pH 7.4, 120 mM NaCl, 5.4 mM KCl, 0.8 mM MgCl2, 1.8 mM CaCl2, 15 mM glucose and 15 mg/l phenol red, with an addition of a phosphodiesterase inhibitor IBMX (3-isobutyl-1-methylxanthine) in a concentration of 1 mM and […]. Basal cAMP levels were determined in CSS containing these additives and maximally stimulated cAMP levels were determined in the presence of 50 μM forskolin. For testing agonistic activity, the compounds were incubated with the cells for 20 minutes at 37° C. The reaction was stopped by addition of ice cold HClO4 (1N) and stored at −20° C. After thawing the mixtures were neutralized with an equivalent amount of phosphate buffered KOH, left at 4° C. during 30 minutes to allow the salts to precipitate and centrifuged at 2,000 RPM for 5 minutes at 4° C.
For the quantitative determination of the cAMP levels, a 96-well Flashplate radioimmunoassay kit from NEN was used, according to the protocol of the supplier. The sigmoid concentration response curves (duplicate points) were analyzed using the GraphPad Prism program.

| Compound | IC50 ([3]; mean of n experiments) | IC50 ([3]; single experiments) | antagonistic effect (adenine binding GPCR) | calcium transients elicited (rat adenine binding GPCR) | agonistic effects on Ca2+ transients (rat adenine binding GPCR) | pIC50 (wild type CHO cells [4]; mean of n experiments) | pIC50 (wild type CHO cells [4]; single experiments) | pIC50 ([3]; mean of n experiments) | pIC50 ([3]; single experiments) | other results |
| --- | --- | --- | --- | --- | --- | --- | --- | --- | --- | --- |
| Nc1ncnc2nc[nH]c12 [[^3H]adenine] |  |  |  |  |  |  |  |  |  | [3H]adenine binding (Cos7): 226 fmoles/mg protein; [3H]adenine binding (CHO): 303 fmoles/mg protein (pool 1) and 583 fmoles/mg protein (pool 2); [3H]adenine binding (C6 glioma): 839 fmoles/mg protein; [3H]adenine binding (NIH3T3): 642 fmoles/mg protein; [3H]adenine binding (HEK293): 168 fmoles/mg protein; Kd (wild type CHO cells [1]; 100 μM Gpp-NHp): 16 nM; Kd (wild type CHO cells [1]; No Gpp-NHp): 26 nM; average saturation binding levels [2]: around 19 pmol/mg; Bmax ([2]; 100 μM Gpp-NHp, mean n=3): 17341 fmoles/mg protein; Kd ([2]; 100 μM Gpp-NHp, mean n=3): 61 nM; Kd ([2]; 100 μM Gpp-NHp, single experiments): 57 nM and 72 nM and 54 nM; Bmax ([2]; No Gpp-NHp, mean n=3): 18894 fmoles/mg protein; Kd ([2]; No Gpp-NHp, mean n=3): 24 nM; Bmax ([2]; No Gpp-NHp, single experiments): 25375 fmoles/mg protein and 17569 fmoles/mg protein and 13738 fmoles/mg protein; Kd ([2]; No Gpp-NHp, single experiments): 23 nM and 25 nM |
| Nc1nc2nc[nH]c2c(=O)[nH]1 [Guanine, guanine] | > 100000 nM | > 100000 nM | weak antagonistic effect | could not be elicited | No further agonistic effects | <4 | <4 |  |  |  |
| O=c1[nH]cnc2nc[nH]c12 [Hypoxanthine, hypoxanthine] | > 100000 nM | > 100000 nM | did not elicit antagonistic effects | could not be elicited | No further agonistic effects | <4 | <4 |  |  |  |
| Nc1ncnc2c1ncn2[C@@H]1O[C@H](COP(=O)(O)OP(=O)(O)OP(=O)(O)O)[C@@H](O)[C@H]1O [ATP] |  |  | did not elicit antagonistic effects |  | No further agonistic effects | <4 | <4 | 4.07 | 4.02 and 4.18 | Ki ([3]; mean of n experiments): 52800 nM; Ki ([3]; single experiments): 58.5 µM (2×) and 40.7 µM |
| Nc1ncnc2c1ncn2[C@@H]1O[C@H](COP(=O)(O)OP(=O)(O)O)[C@@H](O)[C@H]1O [ADP] |  |  | did not elicit antagonistic effects |  | No further agonistic effects | <4 | <4 | <4 | <4 |  |
| C=C[C@@]1(C)CC(=O)[C@]2(O)[C@@]3(C)[C@@H](O)CCC(C)(C)[C@@H]3[C@H](O)[C@H](OC(C)=O)[C@@]2(C)O1 [forskolin] |  |  |  |  |  |  |  |  |  | cAMP level with Forskolin 50 μM (wild type CHO cells [5]; 0.5% hiFCS, induction): 25 pmol/well; cAMP level with Forskolin 50 μM (wild type CHO cells [5]; 0.5% hiFCS, no induction): 26 pmol/well; cAMP level with Forskolin 50 μM (wild type CHO cells [5]; 10% hiFCS, induction): 63 pmol/well; cAMP level with Forskolin 50 μM (wild type CHO cells [5]; 10% hiFCS, no induction): 107 pmol/well |
